Results from PubChem BioAssay AID2060898 (Molecular Pharmacology Branch, DTP, NCI, 2025).

System: 616215-338-R-J1-PDC complex spheroid viability
Assay: Anticancer human tumor 616215-338-R-J1-PDC patient-derived colon adenocarcinoma cell line growth inhibition [RAS]
Conditions: for IC50: curve of first compound; for viability, T/C: stronger effect = lower value; active = viability on the fitted dose curve at most 10% of control; inactive = the rest
In short: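 Tumour cells grown as complex spheroids with HUVEC endothelial cells and mesenchymal stem cells, treated with RAS pathway inhibitor combinations. Each agent spans half-log steps from near clinical Cmax, or 10 microM where Cmax is unknown.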
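Also: spheroids exposed to agents for seven days before viability readout.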
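For viability, T/C in this document: 100% = DMSO vehicle control viability.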

CC1(C)CCC(Nc2ncc(C(F)(F)F)c(-c3c[nH]c4c(P(C)(C)=O)c(C#N)ccc34)n2)CN1 (configuration not stated) + C=CC(=O)N1CCN(c2nc(OCC3CCCN3C)nc3c(F)c(-c4nc(N)cc(C)c4C(F)(F)F)c(Cl)cc23)C(C)C1
8.99 nM: IC50 (second compound 1 µM)
inactive: viability, T/C (second compound 0.00316 µM, first compound 0.000949 µM) 103% | viability, T/C (second compound 0.00316 µM, first compound 0.003 µM) 102% | viability, T/C (second compound 0.00316 µM, first compound 0.00949 µM) 56.7% | viability, T/C (second compound 0.00316 µM, first compound 0.03 µM) 33.5% | viability, T/C (second compound 0.00316 µM, first compound 0.0949 µM) 25.2% | viability, T/C (second compound 0.00316 µM, first compound 0.3 µM) 28.3% | viability, T/C (second compound 0.01 µM, first compound 0.000949 µM) 109% | viability, T/C (second compound 0.01 µM, first compound 0.003 µM) 97.8% | viability, T/C (second compound 0.01 µM, first compound 0.00949 µM) 54% | viability, T/C (second compound 0.01 µM, first compound 0.03 µM) 32% | viability, T/C (second compound 0.01 µM, first compound 0.0949 µM) 30.2% | viability, T/C (second compound 0.01 µM, first compound 0.3 µM) 25.7% | viability, T/C (second compound 0.0316 µM, first compound 0.000949 µM) 103% | viability, T/C (second compound 0.0316 µM, first compound 0.003 µM) 108% | viability, T/C (second compound 0.0316 µM, first compound 0.00949 µM) 62.3% | viability, T/C (second compound 0.0316 µM, first compound 0.03 µM) 35.4% | viability, T/C (second compound 0.0316 µM, first compound 0.0949 µM) 29.2% | viability, T/C (second compound 0.0316 µM, first compound 0.3 µM) 31% | viability, T/C (second compound 0.1 µM, first compound 0.000949 µM) 106% | viability, T/C (second compound 0.1 µM, first compound 0.003 µM) 101% | viability, T/C (second compound 0.1 µM, first compound 0.00949 µM) 64% | viability, T/C (second compound 0.1 µM, first compound 0.03 µM) 33.8% | viability, T/C (second compound 0.1 µM, first compound 0.0949 µM) 27.8% | viability, T/C (second compound 0.1 µM, first compound 0.3 µM) 27.6% | viability, T/C (second compound 0.316 µM, first compound 0.000949 µM) 102% | viability, T/C (second compound 0.316 µM, first compound 0.003 µM) 97.3% | viability, T/C (second compound 0.316 µM, first compound 0.00949 µM) 61.9% | viability, T/C (second compound 0.316 µM, first compound 0.03 µM) 36.6% | viability, T/C (second compound 0.316 µM, first compound 0.0949 µM) 29.1% | viability, T/C (second compound 0.316 µM, first compound 0.3 µM) 28.7% | viability, T/C (second compound 1 µM, first compound 0.000949 µM) 99.7% | viability, T/C (second compound 1 µM, first compound 0.003 µM) 94.1% | viability, T/C (second compound 1 µM, first compound 0.00949 µM) 47.7% | viability, T/C (second compound 1 µM, first compound 0.03 µM) 33.8% | viability, T/C (second compound 1 µM, first compound 0.0949 µM) 34.7% | viability, T/C (second compound 1 µM, first compound 0.3 µM) 28.4%
16.1 nM: IC50 (second compound 0.1 µM) | IC50 (second compound 0.316 µM)
12.8 nM: IC50 (second compound 0.00316 µM)
15.1 nM: IC50 (second compound 0.0316 µM)
11.8 nM: IC50 (second compound 0.01 µM)
